In US5334703A, “Chromogenic substrate” (Chromonogenix AB, priority 1989, dated 1994):
Where a name gives a salt, the structure may show the parent alone. Peptide text beside a SMILES is read from it. * marks the point of attachment. pNA = O=[N+]([O-])c1ccc(N*)cc1

test system: activated LAL (Limulus Amebocyte Lysate); assay: Single-stage chromogenic LAL-test (hydrolysis of the chromogenic substrate by endotoxin-activated LAL, pNA read at 405 nm); assay type: biochemical, Limulus Potyphemus; settings: substrate concentration 2.2 mM in the reaction solution; endotoxin 0.1-1.2 EU/ml; Tris buffer pH 7.9; 37° C., 15 min; absorbance 405 nm
Procedure: A series of endotoxin containing solutions, making up a standard curve in the range 0.1-1.2 EU/ml, were assayed as described below using the different chromogenic substrates. The slopes of the resulting standard curves were compared and the slope for the substrate S-2423 was considered to be 100%.
A reagent (100 μl) consisting of a mixture of LAL (50% of the clotting concentration) and the chromogenic substrate (4.4 mM) in a Tris buffer of pH 7.9 is added to an equal volume of the sample. The resulting reaction (activation of the LAL and the subsequent hydrolyses of the chromogenic substrate)is carried out at 37° C. After 15 min. the reaction is terminated by the addition of 400 μl of acetic acid and the absorbance is read at 405 nm.
Substrate S-2423 (Ac-Ile-Glu-Gly-Arg-pNA.HCl) is taken as standard.

Which “Relative activity (slope of endotoxin standard curve, S-2423 = 100%)” value does the source give for `CC[C@H](C)[C@H](NC(C)=O)C(=O)N[C@@H](CCC(=O)O)C(=O)NCC(=O)N[C@@H](CCCNC(=N)N)C(=O)Nc1ccc([N+](=O)[O-])cc1` [Substrate S-2423, Ac--Ile--Glu--Gly--Arg--pNA.HCl, reference compound] (Ac-IEGR-pNA) here?
The value was 100%.

With `CC[C@H](C)[C@H](NC(C)=O)C(=O)N[C@@H](CCC(=O)O)C(=O)NCC(=O)N[C@@H](CCCCN)C(=O)Nc1ccc([N+](=O)[O-])cc1` [Substrate S-2834, Ac--Ile--Glu--Gly--Lys--pNA.HCl] (Ac-IEGK-pNA) as the compound, how does the “Relative activity (slope of endotoxin standard curve, S-2423 = 100%)” value read?
The value was 126%.

With `CC[C@H](C)[C@H](NC(C)=O)C(=O)N[C@@H](CO)C(=O)NCC(=O)N[C@@H](CCCCN)C(=O)Nc1ccc([N+](=O)[O-])cc1` [Substrate S-2854, Ac--Ile--Ser--Gly--Lys--pNA.HCl] (Ac-ISGK-pNA) as the compound, how does the “Relative activity (slope of endotoxin standard curve, S-2423 = 100%)” value read?
Its value is 131%.

Which “Relative activity (slope of endotoxin standard curve, S-2423 = 100%)” value does the source give for `CC[C@H](C)[C@H](NC(C)=O)C(=O)N[C@@H](CCC(=O)O)C(=O)OCC(=O)N[C@@H](CCCNC(=N)N)C(=O)Nc1ccc([N+](=O)[O-])cc1` [Substrate S-2860, Ac--Ile--Glu-Glycolyl-Arg--pNA.HCl] here?
Its value is 142%.
